From paper PMC8375664 (Frontiers in Endocrinology, 2021)
Values belong to the molecule of their own block, whether it stands above or below them. Bridge positions count the residues as written; N and C are the ends. Square brackets hold non-standard residues; d marks the D form. Peptide text beside a SMILES is read from it. d2Nal = N[C@H](Cc1ccc2ccccc2c1)C(=O)O

What was measured:
[1] = tested on: isolated perfused mouse small intestine, upper half; test: GLP-1 secretion from isolated perfused mouse small intestine, upper half; conditions: vascular administration at end of experiments
Protocol: (§1) Male Wistar rats (~250 g) and male C57BL/6JRj mice (~28 g, 11–12 weeks) were purchased from the Janvier Labs (Le Genest-Saint-Isle, France). Mice and rats were housed with ad libitum access to standard chow and water following a 12:12 h light:dark cycle and were acclimatized for a least a week before experiments. On the day of experiment, rats and mice were transferred to our perfusion facility and anesthetized with a subcutaneous injection of hypnorm/midazolam (rats) (0.3 ml/100 g body weight, per ml: 0.08 mg fentanyl, 2.5 mg fluanisone, 0.45 mg Methyl Parahydroxybenzoate, 0.05 mg Propyl Parahydroxybenzoate, Midazolam: 1.25 mg, Matrix Pharmaceuticals, Hellerup, Denmark) or with an intraperitoneal injection of Ketamine/Xylazine (0.1 ml/20 g) (90 mg/kg Ketamine, Ketaminol Vet, MSD Animal Health; 10 mg/kg Xylazine, Rompun Vet., Bayer Animal Health) respectively, to block the activity of pain sensing nerves and to induce surgical anesthesia. […]
(§2) Total GLP-1 concentrations in venous effluents were quantified using an in-house RIA (code: 89390) ([23]). […] Samples were assayed non-extracted and concentrations were calculated by a four-parameter interpolation to a standard curve containing synthetic GLP-1 7–36 amide (H-6795-GMP, Bachem, Bubendorf, Switzerland) ranging from 5 to 320 pmol/L. I^125-labeled GLP-1 7–36 amide (a gift from Novo Nordisk A/S, Bagssværd, Denmark) was used as tracer. […]

[2] = tested on: isolated perfused distal mouse small intestine; test: GLP-1 secretion from isolated perfused mouse small intestine, distal part; conditions: vascular administration at end of experiment
Protocol: as §1, §2

[3] = tested on: human gut specimens (duodenum, ileum and colon); conditions: incubation of human gut specimens from duodenum; cited from earlier work
Excerpt: Glucagon-like peptide-1 (GLP-1) is a gastrointestinal hormone that is secreted from intestinal L-cells after meal intake. It acts to inhibit appetite and potentiate glucose-stimulated insulin secretion ([1]–[3]). These actions led to the development of GLP-1 based drugs, which have been used for more than a decade for type-2-diabetes treatment and recently also to induce weight loss. In parallel with the development and refinement of GLP-1 based drugs, research has been directed at uncovering the molecular mechanisms responsible for GLP-1 secretion, aiming to create a therapeutically relevant ...

[4] = tested on: isolated perfused rat distal small intestine; test: GLP-1 secretion from isolated perfused rat distal small intestine
Protocol: as §1, with “anesthesia. For distal perfusions, the rat or mouse was placed on a heated operating table (37°C), the abdominal cavity was opened by a mid-line incision and the large intestine was excised after tying off the supplying vasculature. Furthermore, the upper half of the small intestine was removed. In the rat, the lower half of the small intestine (~50 cm) was retained and perfused in situ after insertion of a catheter into the upper mesenteric artery, while perfusion effluent was collected through a catheter inserted in the portal vein.” for “anesthesia.”
as §2

rat MC4R [5] = molecular target: T1, rat MC4R (Rattus norvegicus, UniProt P70596); test: cAMP production by rat MC4R in transfected COS-7 cells (agonist mode)
T1 sequence (P70596 whole entry): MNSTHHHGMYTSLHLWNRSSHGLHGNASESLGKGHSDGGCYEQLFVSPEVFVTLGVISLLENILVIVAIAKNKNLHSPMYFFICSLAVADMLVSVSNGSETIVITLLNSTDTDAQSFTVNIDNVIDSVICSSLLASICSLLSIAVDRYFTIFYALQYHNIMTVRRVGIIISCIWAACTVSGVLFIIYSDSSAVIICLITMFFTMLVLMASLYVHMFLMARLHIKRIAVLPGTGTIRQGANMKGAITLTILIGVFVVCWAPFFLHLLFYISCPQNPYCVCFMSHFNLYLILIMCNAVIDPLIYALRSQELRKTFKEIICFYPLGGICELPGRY

human MC4R = human MC4R (Homo sapiens, UniProt P32245); test: cAMP production by human MC4R in transfected COS-7 cells (agonist mode)
Chain of human MC4R (P32245 whole entry): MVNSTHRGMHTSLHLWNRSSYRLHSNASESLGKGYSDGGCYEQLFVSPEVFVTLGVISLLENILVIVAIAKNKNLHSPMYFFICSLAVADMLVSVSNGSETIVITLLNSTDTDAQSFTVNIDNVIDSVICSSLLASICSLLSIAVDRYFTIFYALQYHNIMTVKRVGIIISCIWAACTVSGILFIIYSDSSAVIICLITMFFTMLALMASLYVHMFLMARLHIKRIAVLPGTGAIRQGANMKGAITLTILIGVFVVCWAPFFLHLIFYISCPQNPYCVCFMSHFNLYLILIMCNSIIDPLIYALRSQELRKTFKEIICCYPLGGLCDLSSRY

rat MC4R [6] = molecular target: T1, rat MC4R; test: Inhibition of agonist-induced cAMP production by rat MC4R in transfected COS-7 cells (antagonist mode)

Molecule: bombesin
- effect on GLP-1 output (positive control) [1]: robustly increased GLP-1 output
- effect on GLP-1 output (positive control) [2]: robustly increased GLP-1 output

Molecule: CC(=O)N[C@@H](C)c1cc(Cl)ccc1C1CCN(C(=O)[C@@H]2CN(C(C)(C)C)C[C@H]2c2ccc(F)cc2F)CC1 [MK-0493]
- effect on GLP-1 and PYY secretion [3]: increased

Molecule: OC[C@H]1OC(O)[C@H](O)[C@@H](O)[C@@H]1O (stereo partly shown) [glucose]
- total GLP-1 output during first luminal glucose stimulation, control experiment ([4]; luminal glucose 20% w/v, 15 min, baseline 1.8 ± 0.2 pmol, P <0.001, n = 6): 4.8 ± 0.34 pmol
- total GLP-1 output during first luminal glucose stimulation, glucose + HS014 experiment (before HS014) ([4]; luminal glucose 20% w/v, 15 min, baseline 2.0 ± 0.5 pmol, P = 0.01, n = 6): 5.6 ± 1.0 pmol
- fold increase of GLP-1 secretion by luminal glucose ([4]; luminal glucose infusion): 2–3 fold

- EC50 (rat MC4R [5]): 15.8 nM
- Emax (rat MC4R [5]; COS-7, read-out: Emax on rat MC4R relative to alpha-MSH Emax): ~40%
- EC50 (human MC4R): 35 nM
- IC50 (rat MC4R [6]): 6.31 nM
Molecule: CC(=O)N[C@H]1CSSC[C@@H](C(=O)N2CCC[C@H]2C(=O)N2CCC[C@H]2C(=O)N[C@@H](CCCCN)C(=O)N[C@@H](CC(=O)O)C(N)=O)NC(=O)CNC(=O)[C@H](Cc2c[nH]c3ccccc23)NC(=O)[C@H](CCCNC(=N)N)NC(=O)[C@@H](Cc2ccc3ccccc3c2)NC(=O)[C@H](Cc2c[nH]cn2)NC(=O)[C@H](CCC(=O)O)NC1=O [HS014] (Ac-CEH[d2Nal]RWGCPPKD-NH2; disulfide 1-8)
